Measurements from PMC4579554, “Isolation and characterisation of transport-defective substrate-binding mutants of the tetracycline antiporter TetA(B)” (Biochimica et Biophysica Acta, 2015).

Tests used:
[1] = molecular target: T1, TetA(B)-Δ394–401-Thrombin-His12 (Escherichia coli, UniProt P02980, DEL394-401); assay: isothermal titration calorimetry; type: binding
T1 construct: C-terminal truncation of residues 394-401, thrombin site and His12 tag (also printed as His10) kept, pET21b, expressed in E. coli C43, purified in LMNG

TetA(B)-His10 = molecular target: T2, TetA(B)-His10 (Escherichia coli, UniProt P02980); assay: isothermal titration calorimetry; type: binding
T2 construct: full length (401 residues), C-terminal His10 tag kept, pET21b, expressed in E. coli C43, purified in LMNG
From the text: isothermal titration calorimetry on TetA(B)-His10

[2] = molecular target: TetA(B)-Δ394–401-Thrombin-His12 (Escherichia coli, UniProt P02980, DEL195-199/DEL203-207); assay: biochemical
From the text: isothermal titration calorimetry on TetA(B)-Δ394–401-Thrombin-His12

TetA(B)-Δ394–401-Thrombin-His12 (Escherichia coli, UniProt P02980, DEL195-199/DEL203-207), sequence (P02980 1-393, stated change not applied): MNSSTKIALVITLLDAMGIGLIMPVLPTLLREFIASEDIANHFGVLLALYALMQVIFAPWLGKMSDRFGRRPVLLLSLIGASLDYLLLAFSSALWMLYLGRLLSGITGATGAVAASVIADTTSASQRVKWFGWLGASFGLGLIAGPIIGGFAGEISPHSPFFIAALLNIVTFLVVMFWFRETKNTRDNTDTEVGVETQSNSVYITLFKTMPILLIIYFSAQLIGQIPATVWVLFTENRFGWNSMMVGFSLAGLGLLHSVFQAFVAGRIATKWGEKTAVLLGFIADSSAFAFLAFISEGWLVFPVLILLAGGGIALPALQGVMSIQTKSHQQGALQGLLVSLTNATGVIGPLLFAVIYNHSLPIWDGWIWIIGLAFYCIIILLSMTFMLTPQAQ
T1 sequence (P02980 1-393, stated change not applied): as above
T2 sequence (P02980 whole entry): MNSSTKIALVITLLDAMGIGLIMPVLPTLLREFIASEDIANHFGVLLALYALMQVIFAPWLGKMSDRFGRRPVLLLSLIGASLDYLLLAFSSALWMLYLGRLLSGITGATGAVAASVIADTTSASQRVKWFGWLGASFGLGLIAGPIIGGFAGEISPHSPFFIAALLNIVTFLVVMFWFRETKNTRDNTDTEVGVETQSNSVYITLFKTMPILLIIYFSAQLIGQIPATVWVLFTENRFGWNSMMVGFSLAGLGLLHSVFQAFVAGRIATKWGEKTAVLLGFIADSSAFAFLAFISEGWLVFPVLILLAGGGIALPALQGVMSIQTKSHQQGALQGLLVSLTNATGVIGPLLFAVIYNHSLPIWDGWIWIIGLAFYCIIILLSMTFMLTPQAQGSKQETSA

CN(C)[C@@H]1C(=O)C(C(N)=O)=C(O)[C@@]2(O)C(=O)C3=C(O)c4c(O)cccc4[C@@](C)(O)[C@H]3C[C@@H]12 [tetracycline]
Kd [1]: 10 ± 2 µM
Kd (TetA(B)-His10): 7.3 ± 0.5 µM
Kd [2]: 17.5 ± 0.5 µM
